Assay results from PMC12333940, “A prometabolite strategy inhibits cardiometabolic disease in an ApoE^–/– murine model of atherosclerosis” (JCI Insight, 2025).
Values joined by “and” are separate entries in the source; they are usually repeats but may differ in a detail not shown here. Identical values can stand only once.

Assays:
RAW 264.7 macrophages = assay: Flow cytometry of iNOS, CD80, CD86 in LPS-stimulated RAW 264.7; assay type: cell-based; conditions: for CD80+ % Live / CD86+ % Live / iNOS+ %Live: listed as SB;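 for CD80 MFI: LPS 200 ng/mL for 6 h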;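 for iNOS MFI: LPS 200 ng/mL for 6 h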
Experimental: RAW 264.7 (ATCC, TIB-71) macrophages were cultured at 37°C and 5% CO2 in DMEM (Gibco) supplemented with 1 mM HEPES, 1 mM sodium pyruvate, 10% FBS, and penicillin/streptomycin. Cells were plated in round-bottom 96-well plates at 100,000 cells per well and incubated with different concentrations of either NaBut or SerBut (0.15–12 mM) for 24 hours. […] The cell culture supernatant was collected and analyzed by LEGENDPlex to analyze the concentrations of cytokines (BioLegend). Cell phenotype was analyzed using flow cytometry (Cytek Aurora).
Flow cytometry was performed using a BD LSRFortessa or a Cytek Aurora full-spectrum cytometer. Data were analyzed using FlowJo version 10.8.0. eFluor 780 Viability Dye (Invitrogen, 65-0865-14) and antibodies against the following markers were used in the RAW 264.7 macrophage in vitro studies: CD86 (BV421; BD Horizon, catalog 564198), CD80 (BC650; BioLegend, clone 16-10A1, catalog 104732), and iNOS (APC; Invitrogen, clone CXNFT, catalog 17-5920-9). Live/Dead Blue (Invitrogen, 123105A) and antibodies against the following markers were used in the atherosclerosis mouse models: F4/80 (FITC; BioLegend, clone BM8, catalog 123108), CD3e (BV605; BD Biosciences, clone 145-2C11, catalog 563565), CD4 (BUV496; BD Biosciences, clone GK 1.5, catalog 612952), RORγt (AF647; BD Biosciences, clone Q31-378, catalog 562682), FoxP3 (AF488, BD Biosciences, clone MF23, catalog 560403), CCR2 (PE; R&D Systems, catalog FAB5538P), Ly6C (APC-Cy7; BioLegend, catalog 128026, clone HK1.4), Ly6G (AF488; BioLegend, catalog 127626), CD8 (APC-Cy7; BioLegend, clone 53-6.7, catalog 100714), CD45 (BUV805; Invitrogen, clone 30-F11, catalog 368-0451-82), and CD25 (PerCP-Cy5.5; BioLegend, clone PC61, catalog 102030).

ApoE^–/– mice on an HFD [1] = assay: CD68 immunohistochemistry and Stary plaque severity grading; assay type: in vivo, mouse; set-up: STARY Score Average: scale not given here
Experimental: (§1) For 6 weeks, mice were freely administered water, water containing 150 mM SerBut, or water containing an equimolar amount of NaBut. SerBut water was pH adjusted using 10 M NaOH to a final pH of 7.4. […] In concert, mice were fed an HFD with 42% from fat and 0.2% total cholesterol (Envigo, TD-88137) ad libitum. After 6 weeks, mice were euthanized. The lMLNs, ILNs, spleen, heart, and aorta were harvested and processed for flow cytometry analysis ([67]). The liver was harvested and part was homogenized in tissue protein extraction reagent buffer (Invitrogen, 78510) supplemented with protease inhibitor mini tablets (Thermo Fisher Scientific, PIA32955) for Western blotting and qPCR. The remaining liver was fixed with 4% paraformaldehyde and embedded in paraffin for histological analysis.
Frozen aortic root sections were fixed in Zamboni fixative for 10 minutes. After TBS wash, slides were loaded on Leica Bond RX automated stainer. Anti–mouse CD68 antibody (BioLegend, catalog 137001, clone FA-11; 1:4000) was applied to tissue sections for 60 minutes of incubation at room temperature. Following TBS wash, tissue sections were incubated with rabbit anti-rat IgG (Thermo Fisher Scientific, 31219) 30 minutes. The antigen-antibody binding was detected using Polymer-HRP (Leica Biosystems, Bond Polymer Refine Detection kit, DS9800). The slides were coverglassed by autocoverslipper (Tissue-Tek Glas g2). Stary plaque severity grading was done as previously described ([42]). Briefly, each individual mouse was scored if there were at least 2 sections showing all 3 leaflets of the aortic valve that could reasonably be scored. Each leaflet was scored individually per aortic valve and subsequently averaged per section. All sections were averaged per mouse for a final score. Sections were graded blinded. Table 1 explains the scoring scale. Quantitative analysis of plaque features was performed using a classifier in QuPath (v.05.0).

ApoE^–/– mice on an HFD [2] = assay: Histological grading and scoring of livers; assay type: in vivo, mouse; set-up: key to Liver Grading and Staging: Lobular inflammation (CD3+): one focus in which more than 10 periductal CD3^+ lymphocytes are found in an ×200 field; 2 to 5 instances of more than 10 periductal CD3^+ immune cells in an ×200 field; 3: Any sample exceeding this threshold
Experimental: as §1
Sections (8 μm thick) were stained. Digital image files were created with an Olympus VS200 Research Slide Scanner (Olympus/Evident) with a Hamamatsu ORca-Fusion camera (Hamamatsu Photonics) at ×40 magnification. Individual images were created with the OlyVIA Viewer software (Olympus/Evident). Scoring and grading was performed by a pathologist as previously described ([48]). Immunohistochemistry grading was informed by age-matched WT controls. In age-matched WT controls, CD3^+ immune cells were seen scattered without distinct aggregate formation nor associated tissue reaction. In an ×400 field, we observed up to 25 CD3^+ immune cells scattered in an even distribution, with rare events of up to 10 periductal CD3^+ immune cells but with no associated ductal or parenchymal reaction. […] Furthermore, a score of 2 corresponds to 2 to 5 instances of more than 10 periductal CD3^+ immune cells in an ×200 field. Any sample exceeding this threshold was scored a 3.

[3] = 4 mM, 12 Hour LPS stim after Butyrate treament
[4] = 4 mM, 12 hour LPS stim before butyrate treatment
[5] = 12 mM, 12 Hour LPS stim after Butyrate treament
[6] = 12 mM, 12 hour LPS stim before butyrate treatment
[7] = liver, individual mice, 150 mM ad libitum for 6 weeks, HFD

## CCCC(=O)OC[C@H](N)C(=O)O [SerBut, O-butyryl-L-serine]
RAW 264.7 macrophages; 1.3 mM 24 h, then LPS 6 h
  CD80 MFI: 22757 and 22379 and 22182 and 22697 and 22413
  iNOS MFI: 133476 and 131849 and 120651 and 126894 and 131328
RAW 264.7 macrophages; 4 mM 24 h, then LPS 6 h
  CD80 MFI: 22258 and 21750 and 21713 and 21977 and 22364 and 21487
  iNOS MFI: 123258 and 124792 and 115548 and 125159 and 131532 and 119298
RAW 264.7 macrophages; [3]
  CD80+ % Live: 20.6% and 26% and 25.2%
  CD86+ % Live: 6.07% and 6.44% and 6.25%
  iNOS+ %Live: 57.8% and 66.6% and 65.8%
RAW 264.7 macrophages; [4]
  CD80+ % Live: 45.8% and 43.1% and 44.5%
  CD86+ % Live: 14.9% and 14.1% and 14.2%
  iNOS+ %Live: 40.8% and 45.6% and 40.9%
RAW 264.7 macrophages; 12 mM
  iNOS and CD80 expression after LPS stimulation: significantly reduced
RAW 264.7 macrophages; 12 mM 24 h, then 200 ng/mL LPS 6 h
  CD80 MFI: 20826 and 21079 and 20195 and 20493 and 21214 and 20412
RAW 264.7 macrophages; 12 mM 24 h, then LPS 6 h
  iNOS MFI: 95330 and 101513 and 93052 and 99228 and 94381 and 96644
RAW 264.7 macrophages; [5]
  CD80+ % Live: 13.7% and 18.3% and 22.8%
  CD86+ % Live: 6.99% and 8.29% and 9.22%
  iNOS+ %Live: 26.5% and 43.9% and 50.9%
RAW 264.7 macrophages; [6]
  CD80+ % Live: 43.1% and 48% and 48.3%
  CD86+ % Live: 14.5% and 13.5% and 15.9%
  iNOS+ %Live: 31.3% and 49.4% and 36.1%
RAW 264.7 macrophages; high doses
  iNOS-suppressing capacity during longer LPS stimulations: maintained
ApoE^–/– mice on an HFD [1]; 6 weeks, compared with water-treated mice
  plaque severity score, CD68^+ stained area and necrotic core area: significant reduction
ApoE^–/– mice on an HFD [1]; average per mouse, experiments 1 and 2, grades per the 1st table
  STARY Score Average: 4.31 and 4.429 and 3.833 and 3.944 and 4.333 and 4 and 3.75 and 3.583
ApoE^–/– mice on an HFD [1]; individual mice
  CD68+ IHC Quantification CD68 % Lesion: 69.8799 % Lesion and 66.2246 % Lesion and 57.396 % Lesion and 61.0623 % Lesion and 37.3547 % Lesion and 58.9062 % Lesion and 54.5852 % Lesion
  CD68+ IHC Quantification CD68+ (um2): 83533.6 um2 and 151477 um2 and 57839.2 um2 and 114375 um2 and 26376.1 um2 and 132530 um2 and 122451 um2
  CD68+ IHC Quantification Intima % Lesion: 20.6972 % Lesion and 12.9871 % Lesion and 31.9636 % Lesion and 8.967 % Lesion and 42.8946 % Lesion and 25.2201 % Lesion and 37.0252 % Lesion
  CD68+ IHC Quantification Intima (um2): 25307.3 um2 and 13303.3 um2 and 35976.1 um2 and 33683.8 um2 and 30916.8 um2 and 58237.6 um2 and 82003.5 um2
  CD68+ IHC Quantification Necrotic Core % Lesion: 8.949 % Lesion and 20.1213 % Lesion and 8.471 % Lesion and 28.3702 % Lesion and 18.86 % Lesion and 14.738 % Lesion and 7.7245 % Lesion
  CD68+ IHC Quantification Necrotic Core (um2): 10697.9 um2 and 47552.4 um2 and 8399.84 um2 and 53169.3 um2 and 13317 um2 and 32727 um2 and 17678.5 um2
ApoE^–/– mice on an HFD [2]; 6 weeks
  CD3^+ immune cell infiltration into the livers, lobular inflammation: Neither SerBut nor NaBut significantly reduced
  hepatocellular nuclear hypertrophy: suppressed
  liver steatosis (macrovesicular fat) score: significantly suppressed
  overall summed histological liver score: reduced liver pathology
ApoE^–/– mice on an HFD [2]; [7]
  Liver Grading and Staging: Balooning Grade, Hypertrophy: 2 and 1 and 0
  Liver Grading and Staging: Lobular inflammation (CD3+): 1 and 0 and 2
  Liver Grading and Staging: Steatosis Grade, Macro fat: 0 and 2
  NAS score (steatosis, inflammation, Ballooning): 3 and 2 and 6 and 1
